Experimental data published in US20260182569A1, “SMART BIOSTIMULANT DELIVERY FOR PLANT GROWTH AND DEVELOPMENT” (King Abdullah University of Science and Technology, priority 2022, published 2026).

Columns and labels:
pepper fruits = experiment: LC-MS analysis of pepper fruits from field trial for MiZax-3; format: in vivo
3T3 cells = experiment: Cytotoxicity analysis, live-dead viability and CCK-8 assays; format: cell-based; settings: viability after 24 hours
Description: FIG. 10A illustrates a cytotoxicity analysis of precursor molecules, including Zn(NO3)2, 2-MIm, and MiZax-3, according to some embodiments. FIG. 10B illustrates a cytotoxicity analysis of ZIF-8 and ZIF-8@MiZax-3 complexes, according to some embodiments. Assessing the safety of this synthetic platform is critical. Accordingly, it is important to check if any of the materials or degraded building blocks are transferred from the rhizosphere to the actual fruit. For cytotoxicity analysis, live-dead viability and cell counting kit-8 (CCK-8) assays were performed according to the manufacturer's protocol. Briefly, 3T3 cells (1×10^4 cells per well) were seeded onto a 96-well plate. After 24 hours, cells were incubated with different concentrations (0.1, 0.5, 1, 5, 10, and 50 μg/mL) of ZIF-8 and ZIF-8 loaded with MiZax-3. In addition, to evaluate the cytotoxicity of the particles after degradation at low pH, 3T3 cells were incubated with Zn(NO3)2 and 2-MIm at concentrations of (0.01, 0.05, 0.1, 0.5, 1, 5, 10, and 50 μg/mL) and with MiZax-3 at (0.01, 0.05, 0.1, 0.5, 1, 5, 10, and 50 ng/mL). The cell viability was measured after 24 hours.

[1] = Thermal stability in amino acid media, PBS and HEPES, 45° C. for 24 hours (UV-vis); format: physicochemical; settings: amino acid and buffer (PBS, HEPES) solutions
Description: Organic matter is combined with more than 90% of the nitrogen sources present in the soil, with 20%-40% of this ratio in amino form. The amino acid (AA) composition of soil organic matter depends on several factors, for instance, pH, plant interaction with other microorganisms, environmental factors (e.g., temperature and CO2 levels), and chemical and nutrient composition. Thus, considering the complexity of using soil as substrates for plants as well as the mechanisms that these undergo during their growth stages, it is important to develop more resistant materials that remain stable under certain conditions. To test the stability of ZIF-8@MiZax-3, it was dissolved in a series of AA media and incubated it at 45° C. for 24 hours. Additionally, PBS and HEPES solutions were utilized to assess the thermal stability in biological and physiological conditions.
A set of samples were prepared as follows: Aspartic acid (5 mM), Glutamine (5 mM), Histidine (5 mM), PBS (1×), Asparagine (5 mM), Glutamic acid (5 mM), Alanine (5 mM), HEPES (10 mM), Mixture of amino acids (5 mM) all in 5 mL of PBS and 1 drop of ethanol. Subsequently, the samples were vortexed for 10 seconds and incubated at 45° C. for 24 hours. […]
A decrease in intensity around 283 nm wavelength and remarkable shifts in the absorbance maxima of MiZax-3 were readily observed after the incubation period. […]

[2] = system: Capsicum (C. annuum L. var. California Wonder); experiment: Capsicum field trial, growth and yield; format: in vivo
Description: FIG. 10C illustrates a schematic representation of the final product utilized for soil treatment, according to some embodiments. The final products included ZIF-8, MiZax-3, and ZIF-8@MiZax-3. These products were added to the sand/soil for the field experiment. FIG. 10D illustrates pictures of a field experiment utilizing ZIF-8@MiZax-3, according to some embodiments. Capsicum (C. annuum L. var. California Wonder) seedlings used for the field trial were initially germinated in soil and grown until the 4-week-old stage in a greenhouse under a semi-controlled environment adjusted to 28° C. (day)/26° C. (night) temperature, under 12 hours-light photoperiod with 60% humidity for nursery. During the nursery period, seedlings were given Hoagland solution to boost their growth before transferring to the field. The uniformly selected seedlings were transferred to the field during the winter season. The field used for the capsicum trial for testing ZIF-8, MiZax-3, and ZIF-8@MiZax-3 was divided into plots and treatments were allocated by following randomized complete block design (RCBD) with three replications as previously described. Each plot size was around 2 m×1.2 m with a planting distance of 50 cm×60 cm (8 plants/plot). After a week of acclimation, the first soil treatments were completed by mixing ZIF-8 (˜33.3 mg/L soil), MiZax-3 (˜1.38 mg/L soil), and ZIF-8@MiZax-3 (˜33.3 mg/L soil) directly on top of each plant stem on the soil surface. The treatments were repeated twice with a month gap in between. Plants were watered with a drip irrigation system twice a day, with an average of half a liter of water per individual. Plant phenotyping data were collected until 13 weeks after transplanting (13WAT) stage to the field. FIG. 11B illustrates a graph of the number of buds per individual at 4WAT, according to some embodiments. […] Two consecutive harvests were completed to compare the total fresh fruit yield harvested per total number of plants (n=24) between treatments and mock. The ZIF-8, MiZax-3 and ZIF-8@MiZax-3 treatments enhanced the total yield by 26.37%, 31.76% and 35.11%, respectively. […] In addition, zinc fertilizers can alter the microbial communities in the rhizosphere, which promotes plant growth and eventually increases yield.

[3] = fresh fruit, total number of plants n=24

## COc1ccc(Oc2cccc(/C=C/C(C)=O)c2)cc1 [MiZax-3, (E)-4-(3-(4-methoxyphenoxy)phenyl) but-3-en-2-one]
Pepper fruits
  MiZax-3 in pepper fruits of treated plants: no detectible MiZax-3
3T3 cells
  Concentration up to which high biocompatibility was exhibited: up to 50 ng/ml
[1]
  Shift of UV-vis absorption after thermal incubation: significant wavelength shifts up to 332 nm
[2]; 4WAT
  Number of flower buds per individual: significantly higher number of flower buds compared to the mock and ZIF-8 treated seedlings
  Plant height: significantly taller than mock and ZIF-8 treated plants
[2]; 13WAT, compared to mock, no statistically significant difference
  Average dry shoot biomass per individual plant: upwards trend
[2]; 13WAT, versus mock
  Plant health (appearance): healthier than the mock plants
[2]; capsicum field trial, soil treatment
  Average Total Fruit Number: 53.17
[2]; [3]
  Harvest-1: 4464.8 g
  Harvest-2: 5423.8 g
[2]; total yield versus mock
  Yield Enhancement: 31.76%
[2]; two harvests, total number of plants n=24
  Total Yield: 9888.6 g
